Test results published in patent US12060347B2 (BRISTOL-MYERS SQUIBB COMPANY, priority 2016, dated 2024).

These molecules were tested against T1, human PAR4 (Homo sapiens, UniProt Q96RI0) (assay: PAR4 FLIPR assay: antagonism of agonist-peptide-induced calcium mobilization in PAR4-expressing HEK293 cells). Conditions: H-Ala-Phe(4-F)-[…]NH2-induced intracellular calcium mobilization, 11-point curves.
T1 construct: expressed in transfected cells; host or cells: HEK293 PAR4 Clone 1.2A (BMS Arctic ID 383940)
T1 sequence (Q96RI0 18-385): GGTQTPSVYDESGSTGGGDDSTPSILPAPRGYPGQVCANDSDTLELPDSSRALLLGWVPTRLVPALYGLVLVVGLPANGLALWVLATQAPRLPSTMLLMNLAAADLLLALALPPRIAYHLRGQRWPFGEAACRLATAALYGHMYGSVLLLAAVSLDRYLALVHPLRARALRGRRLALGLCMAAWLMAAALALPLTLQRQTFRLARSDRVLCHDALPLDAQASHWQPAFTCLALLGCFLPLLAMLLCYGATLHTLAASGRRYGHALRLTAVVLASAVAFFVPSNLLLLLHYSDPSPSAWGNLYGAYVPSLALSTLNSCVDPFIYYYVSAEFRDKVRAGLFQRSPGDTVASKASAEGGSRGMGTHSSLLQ
Type: cell-based

Row | SMILES | IC50 [nM]
1 | Cc1cc(-c2nc3c(C)cc(OCCNS(=O)(=O)c4ccccc4)cc3s2)c2ncc(OC(F)F)nc2c1 [Example 73, N-(2-(2-(2-(difluoromethoxy)-7-methylquinoxalin-5-yl)-4-methylbenzo[d]thiazol-6-yloxy)ethyl)benzenesulfonamide] | 2.3
2 | COc1cnc2c(-c3nc4cc(F)c(O[C@@H](C)[C@@H](C)OC(=O)Nc5ccc(NC(C)=O)nc5)cc4s3)cc(C)cc2n1 [Example 601, (2R,3S)-3-((5-fluoro-2-(2-methoxy-7-methylquinoxalin-5-yl)benzo[d]thiazol-6-yl)oxy)butan-2-yl (6-acetamidopyridin-3-yl)carbamate] | 3.5
3 | COCC(COc1cc2sc(-c3cc(C)cc4nc(OC)cnc34)nc2cc1F)OC(=O)Nc1cccnc1 (racemic) [Example 516, 1-((5-fluoro-2-(2-methoxy-7-methylquinoxalin-5-yl)benzo[d]thiazol-6-yl)oxy)-3-methoxypropan-2-yl pyridin-3-ylcarbamate (rac)] | 2
4 | COc1cnc2c(-c3nc4cc(F)c(O[C@@H](C)[C@@H](C)OC(=O)Nc5cnc(NC(=O)c6ccc(F)c(Cl)c6)nc5)cc4s3)cc(C)cc2n1 [Example 604, (2R,3S)-3-((5-fluoro-2-(2-methoxy-7-methylquinoxalin-5-yl)benzo[d]thiazol-6-yl)oxy)butan-2-yl (2-(3-chloro-4-fluorobenzamido)pyrimidin-5-yl)carbamate] | 17
5 | COC(=O)c1ncc(NC(=O)O[C@H](C)COc2nc3sc(-c4cc(C)cc5nc(OC)cnc45)nc3cc2F)cn1 [Example 689, methyl (R)-5-((((1-((6-fluoro-2-(2-methoxy-7-methylquinoxalin-5-yl)thiazolo[5,4-b]pyridin-5-yl)oxy)propan-2-yl)oxy)carbonyl)amino)pyrimidine-2-carboxylate] | 0.3
6 | COc1cnc2c(-c3nc4cc(F)c(O[C@@H](C)[C@@H](C)OC(=O)Nc5cnc(C(N)=O)nc5)nc4s3)cc(C)cc2n1 [Example 755, (2R,3S)-3-((6-fluoro-2-(2-methoxy-7-methylquinoxalin-5-yl)thiazolo[5,4-b]pyridin-5-yl)oxy)butan-2-yl (2-carbamoylpyrimidin-5-yl)carbamate] | 0.3
7 | COc1cnc2c(-c3nc4cc(F)c(O[C@@H](C)[C@@H](C)OC(=O)Nc5cnc(O[C@@H](C)CO)nc5)cc4s3)cc(C)cc2n1 [Example 560, (2R,3S)-3-((5-fluoro-2-(2-methoxy-7-methylquinoxalin-5-yl)benzo[d]thiazol-6-yl)oxy)butan-2-yl (2-(((S)-1-hydroxypropan-2-yl)oxy)pyrimidin-5-yl)carbamate] | 1.4
8 | COc1cnc2c(-c3cc4cc(OC)c(F)c(Cl)c4o3)cc(CO)cc2n1 [Example 124, (8-(7-chloro-6-fluoro-5-methoxybenzofuran-2-yl)-3-methoxyquinoxalin-6-yl)methanol] | 1.8
9 | COc1cnc2c(-c3nc4cc(F)c(OC[C@@H](C)OC(=O)Nc5cnc(C(N)=O)nc5)nc4s3)cc(C)cc2n1 [Example 749, (R)-1-((6-fluoro-2-(2-methoxy-7-methylquinoxalin-5-yl)thiazolo[5,4-b]pyridin-5-yl)oxy) propan-2-yl (2-carbamoylpyrimidin-5-yl)carbamate] | 4.3
10 | COc1ccc2oc(-c3cc(C)cc4nc(OC(F)F)cnc34)cc2c1 [Example 2, 2-(difluoromethoxy)-5-(5-methoxybenzofuran-2-yl)-7-methylquinoxaline] | 11
11 | COc1cnc2c(-c3nc4cc(F)c(O[C@@H](C)[C@@H](C)OC(=O)Nc5cnc(OCCO)nc5)cc4s3)cc(C)cc2c1 [Example 514, (2R,3S)-3-((5-fluoro-2-(3-methoxy-6-methylquinolin-8-yl)benzo[d]thiazol-6-yl)oxy)butan-2-yl (2-(2-hydroxyethoxy)pyrimidin-5-yl)carbamate] | 1.9
12 | COc1cnc2c(-c3nc4cc(F)c(OC[C@@H](C)OC(=O)Nc5ccccc5)cc4s3)cc(C)cc2n1 [Example 411, (R)-1-((5-fluoro-2-(2-methoxy-7-methylquinoxalin-5-yl)benzo[d]thiazol-6-yl)oxy)propan-2-yl phenylcarbamate] | 4.4
13 | COc1cc(C(O)c2ccccc2)c2nc(-c3cc(C)cc4nc(OC)cnc34)sc2c1 (stereo not drawn) [Example 629, (6-methoxy-2-(2-methoxy-7-methylquinoxalin-5-yl)benzo[d]thiazol-4-yl) (phenyl)methanol] | 2.2
14 | CNC(=O)c1ncc(NC(=O)O[C@H](C)COc2cc3sc(-c4cc(C)cc5nc(OC)cnc45)nc3cc2F)cn1 [Example 430, (R)-1-((5-fluoro-2-(2-methoxy-7-methylquinoxalin-5-yl)benzo[d]thiazol-6-yl)oxy)propan-2-yl (2-(methylcarbamoyl)pyrimidin-5-yl)carbamate] | 0.9
15 | CCOc1cnc2c(-c3nc4cc(F)c(OC[C@@H](C)OC(=O)Nc5cnc(OCCO)nc5)nc4s3)cc(C)cc2n1 [Example 814, (R)-1-((2-(2-ethoxy-7-methylquinoxalin-5-yl)-6-fluorothiazolo[5,4-b]pyridin-5-yl)oxy)propan-2-yl (2-(2-hydroxyethoxy)pyrimidin-5-yl)carbamate] | 7.2
16 | COCc1cnc2c(-c3nc4c(Cl)cc(OCCNS(=O)(=O)c5ccccc5F)cc4s3)cc(C)cc2n1 [Example 100, N-(2-(4-chloro-2-(2-(methoxymethyl)-7-methylquinoxalin-5-yl)benzo[d]thiazol-6-yloxy)ethyl)-2-fluorobenzenesulfonamide] | 0.5
17 | COc1cnc2c(-c3nc4cc(F)c(O[C@@H](C)[C@@H](C)OC(=O)Nc5cnc(OC[C@@H](C)O)nc5)cc4s3)cc(C)cc2n1 [Example 578, (2R,3S)-3-((5-fluoro-2-(2-methoxy-7-methylquinoxalin-5-yl)benzo[d]thiazol-6-yl)oxy)butan-2-yl (2-((R)-2-hydroxypropoxy)pyrimidin-5-yl)carbamate] | 5.8
18 | COc1cccc2oc(-c3cc(C)cc4nc(OC(F)F)cnc34)cc12 [Example 42, 2-(difluoromethoxy)-5-(4-methoxybenzofuran-2-yl)-7-methylquinoxaline] | 5.2
19 | COc1cnc2c(-c3nc4cc(F)c(OC[C@@H](C)OC(=O)Nc5ccc(F)nc5)cc4s3)cc(C)cc2n1 [Example 348, (R)-1-((5-fluoro-2-(2-methoxy-7-methylquinoxalin-5-yl)benzo[d]thiazol-6-yl)oxy)propan-2-yl (6-fluoropyridin-3-yl)carbamate] | 4.4
20 | COc1cnc2c(-c3nc4cc(F)c(OC[C@@H](C)OC(=O)Nc5ccc(CO)nc5)cc4s3)cc(C)cc2n1 [Example 546, (R)-1-((5-fluoro-2-(2-methoxy-7-methylquinoxalin-5-yl)benzo[d]thiazol-6-yl)oxy)propan-2-yl (6-(hydroxymethyl)pyridin-3-yl)carbamate] | 14

The remaining lines, values ahead:

Row | IC50 [nM] | SMILES
21 | 2.8 | COCc1cnc2c(-c3nc4c(OC)cc(OC)cc4s3)cc(C)cc2n1 [Example 258, 4,6-dimethoxy-2-(2-(methoxymethyl)-7-methylquinoxalin-5-yl)benzo[d]thiazole]
22 | 18 | COc1cnc2c(-c3nc4c(C)cc(OC)nc4s3)cc(C)cc2n1 [Example 179, 5-methoxy-2-(2-methoxy-7-methylquinoxalin-5-yl)-7-methylthiazolo[5,4-b]pyridine]
23 | 2.4 | COc1ccc(NC(=O)OCCOc2cc3sc(-c4cc(C)cc5nc(OC)cnc45)nc3c(Cl)c2F)cn1 [Example 332, 2((4-chloro-5-fluoro-2-(2-methoxy-7-methylquinoxalin-5-yl)benzo[d]thiazol-6-yl)oxy)ethyl (6-methoxypyridin-3-yl)carbamate]
24 | 13 | COc1cnc2c(-c3nc4c(Cl)c(F)c(OCCCC(=O)Nc5cccnc5)cc4s3)cc(C)cc2n1 [Example 518, 4-((4-chloro-5-fluoro-2-(2-methoxy-7-methylquinoxalin-5-yl)benzo[d]thiazol-6-yl)oxy)-N-(pyridin-3-yl)butanamide]
25 | 2.2 | COc1cc(C)c2nc(-c3cc(C)cc4nc(OC(F)F)cnc34)sc2c1 [Example 10, 2-(2-(difluoromethoxy)-7-methylquinoxalin-5-yl)-6-methoxy-4-methylbenzo[d]thiazole]
26 | 270 | COc1cnc2c(-c3nc4c(Cl)c(F)c(OCCOC(N)=O)cc4s3)cc(C)cc2n1 [Example 358, 2-((4-chloro-5-fluoro-2-(2-methoxy-7-methylquinoxalin-5-yl)benzo[d]thiazol-6-yl)oxy) ethyl carbamate]
27 | 0.8 | COc1cnc2c(-c3nc4c(Cl)c(F)c(OC[C@@H](C)OC(=O)Nc5cnc(C)nc5)cc4s3)cc(C)cc2n1 [Example 589, (R)-1-((4-chloro-5-fluoro-2-(2-methoxy-7-methylquinoxalin-5-yl)benzo[d]thiazol-6-yl)oxy)propan-2-yl (2-methylpyrimidin-5-yl)carbamate]
28 | 0.6 | COc1cnc2c(-c3nc4cc(F)c(OCCOC(=O)Nc5ccc(C#N)nc5)nc4s3)cc(C)cc2n1 [Example 198, 2-((6-fluoro-2-(2-methoxy-7-methylquinoxalin-5-yl)thiazolo[5,4-b]pyridin-5-yl)oxy)ethyl (6-cyanopyridin-3-yl)carbamate]
29 | 5.9 | COCc1cnc2c(-c3nc4c(C)c(C)c(OC)cc4s3)cc(C)cc2n1 [Example 284, 6-methoxy-2-(2-(methoxymethyl)-7-methylquinoxalin-5-yl)-4,5-dimethylbenzo[d]thiazole]
30 | 3.3 | CCOc1cc2sc(-c3cc(C)cc4nc(OC)cnc34)nc2c(F)c1F [Example 315, 6-ethoxy-4,5-difluoro-2-(2-methoxy-7-methylquinoxalin-5-yl)benzo[d]thiazole]
